The values that follow come from US11446290B2, “Treatment of pain with serotonin-3 receptor agonist” (priority 2017, dated 2022).

What all share (format): in vivo
The subject of data set [1] is Male ddY mice. Kind of data set: Experiment 1: therapeutic effects on pain, foot licking and biting after formalin administration.
Data set [2] deals with Male ddY mice. As to the kind of experiment: Experiment 3: therapeutic effects on pain derived from an emotional component (conditioned pain, saline injection at day 4). Conditions: for therapeutic effect on pain derived from an emotional component: foot licking of uninjected foot and biting for 5 minutes, FIG. 3; for therapeutic effects on pain derived from an emotional component: experiments using a similar method, dose not given.

The test system of data set [3] is Male ddY mice. As to the kind of experiment: Experiment 4: effect on amount of activity (supermex). The note with it: measured for 5 minutes after 30 minutes, FIG. 4. An excerpt: The following Experiments 1 to 5 have been carried out according to the method described in literatures (M Nakamura-Kitamura et al. Brain Research 1406 (2011), 8-17; and M Nakamura-Kitamura et al. Pain Research 27 (2012), 153-164) with minor modifications.
Male ddY mice of 5 weeks old (Japan SLC) were used in the experiments. Regarding the environment context as external senses and sensory stimuli such as tactile sense, visual sense, and feeling, a black cylindrical polypropylene box (diameter: 9.5 cm, height: 7 cm, with a round petri dish having a diameter of 8.5 cm at the bottom) and a translucent polypropylene box (14 cm (length)×9.5 cm (width)×5 cm (height), with a reticular plate at the floor) were used.
In order to study the effect of Compound A on the amount of activity, Compound A (5 mg/kg or 10 mg/kg) or vehicle (i.e., saline comprising 5% DMSO) was intraperitoneally administered to each mouse, and after 30 minutes, the amount of activity of the mouse was measured for 5 minutes using supermex (Muromachi Kikai Co., Ltd.). In the experiment, the vehicle administration group consisted of 7 mice, the Compound A (5 mg/kg) administration group consisted of 7 mice, and the Compound A (10 mg/kg) administration group consisted of 6 mice.

Data set [4] relates to Male ddY mice. As to the kind of experiment: Experiment 5: therapeutic effects on acute pain, formalin test phase 1 and phase 2. The note with it: 1, 5, 10 mg/kg i.p. 30 minutes before formalin.

As for `NC1CCN(c2cccc(Cl)n2)CC1` [Compound A, 1-(6-chloropyridin-2-yl)piperidin-4-amine], the “foot licking and biting caused by formalin” value in data set [1] (5 mg/kg intraperitoneally 30 minutes before formalin (0.67%, 20 μL), measured for 5 minutes, FIG. 1) is on record as “significantly suppress”. The “therapeutic effect on pain compared to existing drugs” value in data set [1] (mouse, in vivo) is given as “more excellent therapeutic effect on pain as compared to the existing drugs”. Moreover, the “therapeutic effect on pain derived from an emotional component” value in data set [2] (5 mg/kg intraperitoneally 30 minutes before saline at day 4) and in data set [2] (10 mg/kg intraperitoneally 30 minutes before saline at day 4) was “very strong therapeutic effect” each time. Further, the “therapeutic effect on pain derived from an emotional component compared to each existing drug” value in data set [2] (mouse, in vivo) is “significantly excellent therapeutic effect as compared to each existing drug”. Further, the “effect on the amount of activity” value in data set [3] (5 mg/kg intraperitoneal) and in data set [3] (10 mg/kg intraperitoneal) was “no effect” throughout. The “foot licking and biting caused by formalin, phase 1” value in data set [4] (0 to 5 minutes after formalin, FIG. 5) was “dose-dependently and significantly suppress”. Also, the “foot licking and biting caused by formalin, phase 2” value in data set [4] (5 to 30 minutes after formalin, FIG. 6) is “dose-dependently and significantly suppress”.

On to `Cl.N=C(N)NC(=N)Nc1cccc(Cl)c1` [Compound B, m-chlorophenylbiguanide hydrochloride], for which the “therapeutic effects on pain derived from an emotional component” value (from here on “therapeutic effects on pain derived”) in data set [2] is reported as “showed therapeutic effects”.

Regarding `Cl.N=C(N)NC(=N)Nc1ccccc1` [Compound C, 1-phenylbiguanide hydrochloride], in data set [2], the “therapeutic effects on pain derived” value is “showed therapeutic effects”.

As to `Cc1[nH]c2ccc(O)cc2c1CCN.Cl` [Compound F, 2-methyl-5-hydroxytryptamine hydrochloride], the “therapeutic effects on pain derived” value in data set [2] is “showed therapeutic effects”.

For the compound `Cl.Cn1cc(C(=O)C(=O)N[C@H]2CN3CCC2CC3)c2ccccc21` [G, (R)—N-(1-azabicyclo[2.2.2]oct-3-yl)-2-(1-methyl-1H-indol-3-yl)-2-(1-methyl-1H-indol-3-yl)-2-oxoacetamide hydrochloride], the “therapeutic effects on pain derived” value in data set [2] is listed as “showed therapeutic effects”.
